Measured values reported in US11103605B2, “PET-imaging immunomodulators” (BRISTOL-MYERS SQUIBB COMPANY, priority 2016, dated 2021).

Assay: Stability of reconstituted [^18F]-FPPEGA in 1× PBS buffer
Format: physicochemical
Conditions: 37° C.
Protocol: An aqueous [^18F]-Fluoride solution (2.0 ml, 33.3 GBq/900 mCi) was purchased from P.E.T. Net® Pharmaceuticals in West Point PA and directly transferred to a Sep-Pak light QMA [The Sep-Pak light QMA cartridge was pre-conditioned sequentially with 5 ml of 0.5 M potassium bicarbonate, 5 ml of deionized water, and 5 ml of MeCN before use.] Upon completion of this transfer, the aqueous [^18F] fluoride was released from the QMA Sep-Pak by the sequential addition of potassium carbonate (15 mg/ml; 0.1 ml) followed by a mixture of potassium carbonate (30 mg/ml, 0.1 ml), 4,7,13,16,21,24-hexaoxa-1,10-diazabicyclo[8.8.8]hexacosane (15 mg, 0.04 mmol) and 1.2 ml of MeCN. The solvent was evaporated under a gentle stream of nitrogen at 90° C. and vacuum. Azeotropic drying was repeated twice with 1 ml portions of acetonitrile to generate the anhydrous K.2.2.2/K[^18F]F complex. […] The entire contents of the crude reaction mixture was then transferred, loaded, and purified using reverse phase HPLC under the following conditions: HPLC Column: Luna C18 250×10 Solvent A: 0.1% TFA in DI water; solvent B: 0.1% TFA in acetonitrile at a flow rate of 4.6 ml/minute using isocratic method 32% B while the UV was monitored at 280 nm. […]

- stable in 100% 1× PBS buffer: over 1 hour
SMILES: [N-]=[N+]=NCCOCCOCCOCCOc1cccnc1[18F] [[^18F]-3-(2-(2-(2-(2-azidoethoxy)ethoxy)ethoxy)ethoxy)-2-fluoropyridine]
